13 molecules from patent US5502035A, “N-terminus modified analogs of LHRH” (Tap Holdings Inc., priority 1994, dated 1996) can be followed below.

Non-standard residues stand in square brackets, D forms with d. Residues, ends and D or L forms follow the SMILES beside them. Groups on a side chain read outwards from the residue. ξ: configuration not given here. *: point of attachment. dAla(benzothien-2-yl) = N[C@H](Cc1cc2ccccc2s1)C(=O)O; Shikimoyl = O=C(C1=C[C@@H](O)[C@@H](O)[C@H](O)C1)*; ξTetrahydrofuran2carbonyl = O=C(C1CCCO1)*; dPhe(4-Cl) = N[C@H](Cc1ccc(Cl)cc1)C(=O)O; d2Nal = N[C@H](Cc1ccc2ccccc2c1)C(=O)O; Lys(iPr) = CC(C)NCCCC[C@H](N)C(=O)O; NMeY = CN[C@@H](Cc1ccc(O)cc1)C(=O)O; NMeF = CN[C@@H](Cc1ccccc1)C(=O)O; dCit = NC(=O)NCCC[C@@H](N)C(=O)O; hArg = N=C(N)NCCCC[C@H](N)C(=O)O; d3Pal = N[C@H](Cc1cccnc1)C(=O)O; Salicyloyl = O=C(c1ccccc1O)*; Nicotinoyl = O=C(c1cccnc1)*; 2Furoyl = O=C(c1ccco1)*; X1 = O=C([C@@H]1CCCO1)*; Ava = NCCCCC(=O)O; azaGly = NNC(=O)O; βAla = NCCC(=O)O; Sar = CNCC(=O)O

The term Kb denotes the equilibrium dissociation constant of an antagonist, usually derived from a functional assay.

The experiment concerns the target T1, LHRH (Rattus norvegicus, UniProt P30969).
T1 construct: endogenous in cells; host or cells: rat pituitary cells (own knowledge of the cited Haviv 1989 method)
T1 sequence (P30969 1-327): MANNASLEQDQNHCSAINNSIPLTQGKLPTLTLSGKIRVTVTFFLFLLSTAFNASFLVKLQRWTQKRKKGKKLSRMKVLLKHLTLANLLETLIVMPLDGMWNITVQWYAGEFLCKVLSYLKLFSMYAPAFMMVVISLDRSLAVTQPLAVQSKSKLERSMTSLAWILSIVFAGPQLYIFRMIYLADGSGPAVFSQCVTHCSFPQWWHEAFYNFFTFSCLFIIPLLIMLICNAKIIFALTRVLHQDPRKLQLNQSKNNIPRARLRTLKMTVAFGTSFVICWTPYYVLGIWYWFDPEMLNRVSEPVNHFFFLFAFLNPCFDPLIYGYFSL
Description: in vitro test for LHRH antagonist potency (pA2). It counts as cell-based. The following applies: negative logarithm of the antagonist concentration required to shift the response curve produced by the agonist leuprolide to two-fold higher concentration. In outline:
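Antagonism read against the agonist leuprolide on rat LHRH receptor; value is pA2, the −log of antagonist concentration that doubles the agonist concentration needed for the same response.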
For the molecule `CC(C)C[C@H](NC(=O)[C@@H](CCCNC(N)=O)NC(=O)[C@H](Cc1ccc(O)cc1)N(C)C(=O)[C@H](CO)NC(=O)[C@@H](Cc1cccnc1)NC(=O)[C@@H](Cc1ccc(Cl)cc1)NC(=O)[C@@H](Cc1ccc2ccccc2c1)NC(=O)CNC(=O)C1CCCO1)C(=O)N[C@@H](CCCNC(=N)N)C(=O)N1CCC[C@H]1C(=O)N[C@H](C)C(N)=O` (stereo partly drawn) [Example 13a, N-(R,S)-Tetrahydro-Fur-2-oyl-Gly-D2Nal-D4ClPhe-D3Pal-Ser-NMeTyr-DCit-Leu-Arg-Pro-DAlaNH2] (ξTetrahydrofuran2carbonyl-G[d2Nal][dPhe(4-Cl)][d3Pal]S[NMeY][dCit]LRP[dA]-NH2), the antagonist equilibrium constant (Kb) was 0.00447 nM.

Take `CC(C)C[C@H](NC(=O)[C@@H](CCCCNC(=O)c1cccnc1)NC(=O)[C@H](Cc1ccc(O)cc1)N(C)C(=O)[C@H](CO)NC(=O)[C@@H](Cc1cccnc1)NC(=O)[C@@H](Cc1ccc(Cl)cc1)NC(=O)[C@@H](Cc1ccc2ccccc2c1)NC(=O)CN(C)C(=O)[C@@H]1CCCO1)C(=O)N[C@@H](CCCCNC(C)C)C(=O)N1CCC[C@H]1C(=O)N[C@H](C)C(N)=O` [Example 99, N (S)-2-Tetrahydrofuroyl-Sar-D2Nal-D4ClPhe-D3Pal-Ser-NMeTyr-DLys(Nic),Leu-Lys(Isp)-Pro-DAlaNH2] (X1-[Sar][d2Nal][dPhe(4-Cl)][d3Pal]S[NMeY][dK](Nicotinoyl)L[Lys(iPr)]P[dA]-NH2): the Kb was 0.0117 nM.

Take `CC(C)C[C@H](NC(=O)[C@@H](CCCCNC(=O)c1cccnc1)NC(=O)[C@H](Cc1ccc(O)cc1)N(C)C(=O)[C@H](CO)NC(=O)[C@@H](Cc1cccnc1)NC(=O)[C@@H](Cc1ccc(Cl)cc1)NC(=O)[C@@H](Cc1ccc2ccccc2c1)NC(=O)NNC(=O)c1ccco1)C(=O)N[C@@H](CCCCNC(C)C)C(=O)N1CCC[C@H]1C(=O)N[C@H](C)C(N)=O` [Example 37a, N-(2-Furoyl)-Azagly-D2Nal-D4ClPhe-D3Pal-Ser-NMeTyr-DLys(Nic)-Leu-Lys(Isp)- Pro-DAlaNH2] (2Furoyl-[azaGly][d2Nal][dPhe(4-Cl)][d3Pal]S[NMeY][dK](Nicotinoyl)L[Lys(iPr)]P[dA]-NH2): the Kb was 0.00631 nM.

For the molecule `CC(C)C[C@H](NC(=O)[C@@H](CCCCNC(=O)c1cccnc1)NC(=O)[C@H](Cc1ccc(O)cc1)N(C)C(=O)[C@H](CO)NC(=O)[C@@H](Cc1cccnc1)NC(=O)[C@@H](Cc1ccc(Cl)cc1)NC(=O)[C@@H](Cc1ccc2ccccc2c1)NC(=O)CNC(=O)c1cccnc1)C(=O)N[C@@H](CCCCNC(=N)N)C(=O)N1CCC[C@H]1C(=O)N[C@H](C)C(N)=O` [Example 25f, N-Nicotinyl-Gly-D2Nal-D4ClPhe-D3Pal-Ser-NMeTyr-DLys(Nicotinyl)-Leu-Harg-Pro-DAlaNH2] (Nicotinoyl-G[d2Nal][dPhe(4-Cl)][d3Pal]S[NMeY][dK](Nicotinoyl)L[hArg]P[dA]-NH2), the antagonist equilibrium constant (Kb) is 0.0234 nM.

`CC(C)C[C@H](NC(=O)[C@@H](CCCCNC(=O)c1cccnc1)NC(=O)[C@H](Cc1ccc(O)cc1)N(C)C(=O)[C@H](CO)NC(=O)[C@@H](Cc1cc2ccccc2s1)NC(=O)[C@@H](Cc1ccc(Cl)cc1)NC(=O)[C@@H](Cc1ccc2ccccc2c1)NC(=O)CCNC(=O)c1cccnc1)C(=O)N[C@@H](CCCCNC(C)C)C(=O)N1CCC[C@H]1C(=O)N[C@H](C)C(N)=O` [Example 36, N-Nicotinyl-3-Aminopropionyl-D2Nal-D4ClPhe-DBal-Ser-NMeTyr-DLys(N-epsilon-Nicotinyl) -Leu-Lys(N-epsilon-Isopropyl)-Pro-DAlaNH2] ({Nicotinoyl-βAla}-[d2Nal][dPhe(4-Cl)][dAla(benzothien-2-yl)]S[NMeY][dK](Nicotinoyl)L[Lys(iPr)]P[dA]-NH2): the antagonist dissociation constant (Kb) is 0.0224 nM.

Regarding `CC(C)C[C@H](NC(=O)[C@@H](CCCCNC(=O)CNC(=O)c1cccnc1)NC(=O)[C@H](Cc1ccc(O)cc1)N(C)C(=O)[C@H](CO)NC(=O)[C@@H](Cc1cccnc1)NC(=O)[C@@H](Cc1ccc(Cl)cc1)NC(=O)[C@@H](Cc1ccc2ccccc2c1)NC(=O)CNC(=O)c1cccnc1)C(=O)N[C@@H](CCCCNC(C)C)C(=O)N1CCC[C@H]1C(=O)N[C@H](C)C(N)=O` [Example 8, N-Nicotinyl-Gly-D2Nal-D4ClPhe-D3Pal-Ser-NMeTyr-DLys(Gly-Nicotinyl)-Leu-Lys (N-epsilon-Isopropyl)-Pro-DAlaNH2] (Nicotinoyl-G[d2Nal][dPhe(4-Cl)][d3Pal]S[NMeY][dK]([Gly-Nicotinoyl])L[Lys(iPr)]P[dA]-NH2), the Kb was 0.0204 nM.

With `CC(C)C[C@H](NC(=O)[C@@H](CCCCNC(=O)c1cccnc1)NC(=O)[C@H](Cc1ccc(O)cc1)N(C)C(=O)[C@H](CO)NC(=O)[C@@H](Cc1cccnc1)NC(=O)[C@@H](Cc1ccc(Cl)cc1)NC(=O)[C@@H](Cc1ccc2ccccc2c1)NC(=O)NNC(=O)c1ccccc1O)C(=O)N[C@@H](CCCCNC(C)C)C(=O)N1CCC[C@H]1C(=O)N[C@H](C)C(N)=O` [Example 37c, N-Salicyl-Azagly-D2Nal-D4ClPhe-D3Pal-Ser-NMeTyr-DLys(Nic)-Leu-Lys(Isp)-Pro-DAlaNH2] (Salicyloyl-[azaGly][d2Nal][dPhe(4-Cl)][d3Pal]S[NMeY][dK](Nicotinoyl)L[Lys(iPr)]P[dA]-NH2), the Kb is 0.0251 nM.

With `CC(C)C[C@H](NC(=O)[C@@H](CCCCNC(=O)c1cccnc1)NC(=O)[C@H](Cc1ccc(O)cc1)N(C)C(=O)[C@H](CO)NC(=O)[C@@H](Cc1cccnc1)NC(=O)[C@@H](Cc1ccc(Cl)cc1)NC(=O)[C@@H](Cc1ccc2ccccc2c1)NC(=O)CCCCNC(=O)C1=C[C@@H](O)[C@@H](O)[C@H](O)C1)C(=O)N[C@@H](CCCCNC(C)C)C(=O)N1CCC[C@H]1C(=O)N[C@H](C)C(N)=O` [Example 6f, N-Shikimyl-5Aminovaleryl-D2Nal-D4ClPhe-D3Pal-Ser-NMeTyr-DLys(N-epsilon-Nicotinyl) -Leu-Lys(N-epsilon-Isopropyl)-Pro-DAlaNH2] ({Shikimoyl-Ava}-[d2Nal][dPhe(4-Cl)][d3Pal]S[NMeY][dK](Nicotinoyl)L[Lys(iPr)]P[dA]-NH2), the antagonist dissociation constant (Kb) is 0.0257 nM.

With `CC(C)C[C@H](NC(=O)[C@@H](CCCCNC(=O)C1=C[C@@H](O)[C@@H](O)[C@H](O)C1)NC(=O)[C@H](Cc1ccccc1)N(C)C(=O)[C@H](CO)NC(=O)[C@@H](Cc1cccnc1)NC(=O)[C@@H](Cc1ccc(Cl)cc1)NC(=O)[C@@H](Cc1ccc2ccccc2c1)NC(=O)CNC(=O)C1=C[C@@H](O)[C@@H](O)[C@H](O)C1)C(=O)N[C@@H](CCCNC(=N)N)C(=O)N1CCC[C@H]1C(=O)N[C@H](C)C(N)=O` [Example 17, N-Shikimyl-Gly-D2Nal-D4ClPhe-D3Pal-Ser-NMePhe-DLys(Shik)-Leu-Arg-Pro-DAlaNH2] (Shikimoyl-G[d2Nal][dPhe(4-Cl)][d3Pal]S[NMeF][dK](Shikimoyl)LRP[dA]-NH2), the antagonist equilibrium constant (Kb) was 0.0112 nM.

Turning to `CC(C)C[C@H](NC(=O)[C@@H](CCCCNC(=O)CNC(=O)c1cccnc1)NC(=O)[C@H](Cc1ccc(O)cc1)N(C)C(=O)[C@H](CO)NC(=O)[C@@H](Cc1cccnc1)NC(=O)[C@@H](Cc1ccc(Cl)cc1)NC(=O)[C@@H](Cc1ccc2ccccc2c1)NC(=O)CNC(=O)C1=C[C@@H](O)[C@@H](O)[C@H](O)C1)C(=O)N[C@@H](CCCNC(=N)N)C(=O)N1CCC[C@H]1C(=O)N[C@H](C)C(N)=O` [Example 15b, N-Shikimyl-Gly-D2Nal-D4ClPhe-D3Pal-Ser-NMeTyr-DLys(Gly-Nic)-Leu-Arg-Pro-DAlaNH2] (Shikimoyl-G[d2Nal][dPhe(4-Cl)][d3Pal]S[NMeY][dK]([Gly-Nicotinoyl])LRP[dA]-NH2), the Kb was 0.0209 nM.

For the molecule `CC(C)C[C@H](NC(=O)[C@@H](CCCCNC(=O)C1=C[C@@H](O)[C@@H](O)[C@H](O)C1)NC(=O)[C@H](Cc1ccc(O)cc1)N(C)C(=O)[C@H](CO)NC(=O)[C@@H](Cc1cccnc1)NC(=O)[C@@H](Cc1ccc(Cl)cc1)NC(=O)[C@@H](Cc1ccc2ccccc2c1)NC(=O)CNC(=O)C1=C[C@@H](O)[C@@H](O)[C@H](O)C1)C(=O)N[C@@H](CCCNC(=N)N)C(=O)N1CCC[C@H]1C(=O)N[C@H](C)C(N)=O` [Example 14l, N-Shikimyl-Gly-D2Nal-D4ClPhe-D3Pal-Ser-NMeTyr-DLys(Shik)-Leu-Arg-Pro-DAlaNH2] (Shikimoyl-G[d2Nal][dPhe(4-Cl)][d3Pal]S[NMeY][dK](Shikimoyl)LRP[dA]-NH2), the antagonist equilibrium constant (Kb) was 0.02 nM.

As to `CC(C)C[C@H](NC(=O)[C@@H](CCCCNC(=O)C1=C[C@@H](O)[C@@H](O)[C@H](O)C1)NC(=O)[C@H](Cc1ccc(O)cc1)N(C)C(=O)[C@H](CO)NC(=O)[C@@H](Cc1cccnc1)NC(=O)[C@@H](Cc1ccc(Cl)cc1)NC(=O)[C@@H](Cc1ccc2ccccc2c1)NC(=O)[C@@H](CO)NC(=O)c1cccnc1)C(=O)N[C@@H](CCCCNC(=N)N)C(=O)N1CCC[C@H]1C(=O)N[C@H](C)C(N)=O` [Example 25b, N-Nicotinyl-DSer-D2Nal-D4ClPhe-D3Pal-Ser-NMeTyr-DLys(Shikimyl)-Leu-Harg-Pro-DAlaNH2] (Nicotinoyl-[dS][d2Nal][dPhe(4-Cl)][d3Pal]S[NMeY][dK](Shikimoyl)L[hArg]P[dA]-NH2), the antagonist dissociation constant (Kb) was 0.00794 nM.

Consider `CC(C)C[C@H](NC(=O)[C@@H](CCCCNC(=O)C1=C[C@@H](O)[C@@H](O)[C@H](O)C1)NC(=O)[C@H](Cc1ccc(O)cc1)N(C)C(=O)[C@H](CO)NC(=O)[C@@H](Cc1cccnc1)NC(=O)[C@@H](Cc1ccc(Cl)cc1)NC(=O)[C@@H](Cc1ccc2ccccc2c1)NC(=O)[C@@H](C)NC(=O)c1cccnc1)C(=O)N[C@@H](CCCNC(=N)N)C(=O)N1CCC[C@H]1C(=O)N[C@H](C)C(N)=O` [Example 14c, N-Nicotinyl-DAla-D2Nal-D4ClPhe-D3Pal-Ser-NMeTyr-DLys(Shik)-Leu-Arg-Pro-DAlaNH2] (Nicotinoyl-[dA][d2Nal][dPhe(4-Cl)][d3Pal]S[NMeY][dK](Shikimoyl)LRP[dA]-NH2), for which the antagonist equilibrium constant (Kb) is 0.00537 nM.
